From patent US9446048B2, “Methods for treating leukemia and disorders mediated by CBFβ and RUNX1 proteins” (The United States of America, as represented by the …, priority 2011, dated 2016)

Tests used:
[1] = test system: leukemia cells with CBF fusion genes; assay: Selective cytotoxicity for CBF leukemia cell lines (ATPlite cellular ATP content); type: cell-based; settings: 24 hours; for killing of leukemia cells with CBF fusion genes versus without: ATP content
Description: FIG. 5 depicts the results of treating leukemia cells with or without CBF fusion genes with Ro5-3335. […] The cellular ATP content was measured by a luciferase based viability assay with −100% as 100% cell killing.
Cell lines including HeLa, HL-60, Kasumi-1, Kasumi-6, ME-1, RS4 and REH were obtained from American Type Culture Collection (ATCC, Manassas, Va.). Cells in suspension at a density of 100,000 cells/ml were grown in a T175 flask with 20% FBS RPMI-1640 medium except 20% FBS IMDM medium for HL-60 cell line and the medium was renewed every 2-3 days. The cells were centrifuged and resuspended in 10% FBS phenol free OPTI-MEM medium which were seeded at 500 cells/well in 5 uL in 1536-well white solid-bottom plates using a Multidrop Combi dispenser (ThermoFisher Scientific Inc., Waltham, Mass.). The assay plates were incubated at 37° C. with 5% CO2 and 95% humidity for 2 hours prior to compound addition. Subsequently, 23 nL/well compound DMSO solutions or DMSO controls were transferred to the assay plates using a Kalypsys pintool workstation (Kalypsys, San Diego, Calif.). The plates were then incubated at 37° C. with 5% CO2 and 95% humidity for 24 hours followed by an addition of 4 uL/well of ATPlite reagent (PerkinElmer). After a 20 minute incubation, the plates were measured in the luminescence mode using a ViewLux plate reader (Perkinelmer, Waltham, Mass.).

RUNX1-CBFβ binding = biological target: T1, RUNX1-CBFβ binding (Homo sapiens, UniProt Q01196+Q13951); assay: AlphaScreen high-throughput screen for blocking RUNX1-CBFβ interaction; settings: HTS for RUNX1-CBFβ interaction inhibitors
T1 construct: The full length biotinylated RUNX1, histagged CBFβ and untagged CBFβ proteins were purchased; biotin (biotinylated); purchased Genecopoeia (Germantown, Md.); host or cells: wheat germ extract cell-free protein translation system
T1 sequence (Q01196 whole entry): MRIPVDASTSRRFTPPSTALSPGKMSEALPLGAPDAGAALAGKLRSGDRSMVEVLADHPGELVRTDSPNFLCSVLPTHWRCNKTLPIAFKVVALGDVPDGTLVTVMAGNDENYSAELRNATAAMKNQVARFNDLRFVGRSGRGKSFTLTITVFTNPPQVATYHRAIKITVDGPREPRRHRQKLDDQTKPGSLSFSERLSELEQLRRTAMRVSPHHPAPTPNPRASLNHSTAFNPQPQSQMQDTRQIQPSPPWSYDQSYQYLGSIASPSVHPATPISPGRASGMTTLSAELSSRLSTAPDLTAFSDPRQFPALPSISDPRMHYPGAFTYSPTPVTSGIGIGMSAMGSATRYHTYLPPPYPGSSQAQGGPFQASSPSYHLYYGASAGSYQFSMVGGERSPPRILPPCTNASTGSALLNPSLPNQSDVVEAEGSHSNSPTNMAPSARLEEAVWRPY
T1 sequence (Q13951 whole entry): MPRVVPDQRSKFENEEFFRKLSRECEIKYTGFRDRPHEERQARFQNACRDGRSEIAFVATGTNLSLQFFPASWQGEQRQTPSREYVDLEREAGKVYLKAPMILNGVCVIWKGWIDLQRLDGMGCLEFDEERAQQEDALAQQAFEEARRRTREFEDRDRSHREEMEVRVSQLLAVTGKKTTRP
Description: An Amplified Luminescence Proximity Homogenous Assay (ALPHA) Screen format (PerkinElmer) was used to develop an assay for identifying compounds that affect RUNX1-CBFβ binding (see FIG. 3) optimized for high throughput screening (HTS). The full length biotinylated RUNX1, histagged CBFβ and untagged CBFβ proteins were purchased from Genecopoeia (Germantown, Md.) that were prepared in a wheat germ extract cell-free protein translation system. All three proteins were purified using an affinity column and FPLC chromatography. The assay buffer was comprised of 25 mM HEPES (pH 7.4), 110 mM KC1, 2 mM MgCl2, 10 mM NaCl, 5 mM DTT, and 0.01% Tween-20. The AlphaScreen assay platform (PerkinElmer) was applied for the measurement of interaction of Runx1 protein with the CBFb protein. The assay was developed in 384-well plate format and optimized in 1536-well plate format for high throughput screening. […] The assay plate was measured in an AlphaScreen mode using an Envision plate reader (Perkin Elmer, Waltham, Mass.). […]
Synthesized, tagged RUNX1 and CBFβ were used in the assay and a total of over 240,000 compounds at 7 concentrations each were screened with this assay. […] Confirmatory ALPHA and HTRF (homogeneous time resolved fluorescence) assays were performed to prioritize compounds for their ability to inhibit RUNX1-CBFβ interaction.

zebrafish embryos = assay: Blockage of zebrafish embryonic definitive hematopoiesis (cd41-GFP / lck-GFP transgenic embryos); type: in vivo, zebrafish (Danio rerio); settings: for numbers of cd41-GFP cells in embryos: FIG. 4C, cd41-GFP transgenic embryos; for definitive hematopoiesis in zebrafish embryos: compounds added to water at 24 hours post fertilization, cd41-GFP or lck-GFP embryos
Description: Candidate compounds were tested in a zebrafish model to determine if they specifically block RUNX1-CBFβ interaction. RUNX1 and CBFβ are required for definitive hematopoiesis during embryogenesis, since RUNX1 and CBFβ knockout mouse embryos are devoid of definitive blood cells. Thus, inhibitors of RUNX1 and CBFβ should also be able to block definitive hematopoiesis as well. Standard protocols were used to breed and raise embryos from the cd41-GFP transgenic fish in which GFP marks hematopoietic stem cells, in addition to thrombocytes during embryogenesis, and from the lck-GFP transgenic fish in which GFP marks the T lineage cells. (See Westerfield M, ed The Zebrafish Book, A guide for the laboratory use of zebrafish (Danio rerio). Edition 3 ed. Eugene, Oreg.: University of Oregon Press; 1995; Lin et al. Analysis of thrombocyte development in CD41-GFP transgenic zebrafish. Blood. Dec. 1, 2005; 106(12):3803-3810; Bertrand et al. CD41+ cmyb+ precursors colonize the zebrafish pronephros by a novel migration route to initiate adult hematopoiesis. Development. May 2008; 135(10):1853-1862; Bertrand et al. Definitive hematopoiesis initiates through a committed erythromyeloid progenitor in the zebrafish embryo. Development. December 2007; 134(23):4147-4156; Kissa et al. Live imaging of emerging hematopoietic stem cells and early thymus colonization. Blood. Feb. 1, 2008; 111(3):1147-1156; Langenau et al. In vivo tracking of T cell development, ablation, and engraftment in transgenic zebrafish. Proc Natl Acad Sci USA. May 11, 2004; 101(19):7369-7374). Compounds were added to the water at 24 hours post fertilization and the final DMSO concentrations were less than 0.1%. The embryos were then observed, photographed, and videotaped with a Leica MZ16F dissecting scope, equipped with a Leica DC500 camera and a BioVision Vision-Mac™ video system. The numbers of GFP+ cells in each embryo were counted manually.

[2] = test system: CBF leukemia cells (CBFB-MYH11); assay: Leukemia transplantation murine model (Cbfb-MYH11 knock-in leukemia cells); type: in vivo, mouse; settings: for leukemia burden in mice: 300 mg/kg/day in transgenic dough, similar efficacy as standard chemotherapy drugs; for survival of leukemic mice, combination with cytarabine: 300 mg/kg/p.o. days 10-40 plus cytarabine days 10-15
Description: Compound Ro5-3335 was tested in a CBFβ-MYH11 knock-in mouse model that faithfully models human leukemia with this fusion gene. The mouse model is described in Castilla et al, Failure of embryonic hematopoiesis and lethal hemorrhages in mouse embryos heterozygous for a knocked-in leukemia gene CBFB-MYH11. Cell. 1996; 87(4):687-696; Castilla et al., The fusion gene Cbfb-MYH11 blocks myeloid differentiation and predisposes mice to acute myelomonocytic leukemia. Nat. Genet. October 1999; 23[2]:144-146. The CBFB-MYH11 fusion gene in this mouse model initiates leukemia development with high penetrance but variable latency. However, when the leukemia cells are transplanted, the recipient mice develop leukemia with very short, consistent latency and 100% penetrance.
The B6129F1/J mice were used for injection of leukemia cells developed in the Cbfb-MYH11 knock-in mice. The recipient mice were irradiated at 900 rads before the leukemia cells were given through retro-orbital vein injection, typically at around 250,000-500,000 cells/mouse. Ten days after leukemia cell injection, the mice were given the candidate compounds Ro5-3335 and Ro24-7429 in transgenic dough, at 300 mg/kg/day for up to 30 days. Cytarabine was given for 6 consecutive days starting on day 10 after transplantation, at 100 mg/kg/day IP, and doxorubicin was given for 4 consecutive days starting on day 10 after transplantation, at 3 mg/kg/day IP. The mice were followed by daily inspection and bi-weekly analysis of peripheral blood, which was collected by retro-orbital bleeding. Leukemia cells in the peripheral blood were evaluated by FACS analysis and by blood smear observation. Moribund mice were sacrificed and necropsy conducted to ascertain the diagnosis of terminal leukemia.

[3] = was reported; cited from earlier work

Row | SMILES | killing of leukemia cells with CBF fusion genes versus without [1] | activity in the original screening (RUNX1-CBFβ binding) | numbers of cd41-GFP cells in embryos (zebrafish embryos) | definitive hematopoiesis in zebrafish embryos (zebrafish embryos) | definitive hematopoiesis in zebrafish embryos (zebrafish embryos; listed as J1) | leukemia burden in mice [2] | survival of leukemic mice, combination with cytarabine [2] | leukemia cell burden (c-kit+ cells) ([2]; FIG. 9, 10 days after treatments started) | cell killing potency for CBF leukemia cell lines relative to leukemia cell lines without CBF fusion genes ([1]; ATP content IC50 comparison) | definitive hematopoiesis in zebrafish embryos (zebrafish embryos; listed as J2) | toxicological profile relative to Ro5-3335 [3] | definitive hematopoiesis in zebrafish embryos (zebrafish embryos; listed as J8) | survival of leukemic mice, single agent ([2]; second experiment, cytarabine on days 10-15)
1 | NCC(=O)Nc1ccc(Cl)cc1C(=O)c1ccc[nH]1 [MLS000766105, 2-amino-N-[4-chloro-2-(1H-pyrrole-2-carbonyl)phenyl]acetamide] | preferentially killed | active | reduced numbers | significant reduction | reduce definitive hematopoiesis | – | – | – | – | – | – | – | –
2 | O=C1CN=C(c2ccc[nH]2)c2cc(Cl)ccc2N1 [Ro5-3335, 7-chloro-5-(1H-pyrrol-2-yl)-1,3,-dihydro-1,4-benzodiaepin-2-one] | preferentially killed | – | reduced numbers | significant reduction | – | significantly reduced | synergy | reduced leukemia cell burden | 6-50 fold | reduce definitive hematopoiesis | – | – | –
3 | CNC1=Nc2ccc(Cl)cc2C(c2ccc[nH]2)=NC1 [Ro24-7429, 7-chloro-N-methyl-5-1(1H-pyrrol-2-yl)-3H-1,4-benzodiazepin-2-amine] | – | – | reduced numbers | significant reduction | – | significantly reduced | trend of synergy | – | – | – | improved toxicological profile | reduce definitive hematopoiesis | –
4 | Nc1ccn([C@@H]2O[C@H](CO)[C@@H](O)[C@@H]2O)c(=O)n1 [cytarabine, reference compound] | – | – | – | – | – | – | – | – | – | – | – | – | failed to extend survival
